Results as given in US7060844B2, “(3Z)-3-(2,3-dihydro-1H-inden-1-ylidene)-1,3-dihydro-2H-indol-2-ones as kinase inhibitors” (Allergan, Inc., priority 2002, dated 2006).

Tests used:
[1] = system: VEGF induced increases in intracellular calcium levels in HUVEC (human umbilical vein endothelial cells); assay: VEGF Stimulated Ca++ Signal in Vitro (FLIPR, cell based assay); details: for IC50: VEGF stimulation 5 ng/mL, 30 min pre-incubation, 0.01 to 10.0 uM
Method: VEGF Stimulated Ca^++ Signal in Vitro
Automated FLIPR (Fluorometric Imaging Plate Reader) technology was used to screen for inhibitors of VEGF induced increases in intracellular calcium levels in fluorescent dye loaded endothelial cells. HUVEC (human umbilical vein endothelial cells) (Clonetics) were seeded in 96-well fibronectin coated black-walled plates overnight @ 37° C./5% CO2. Cells were loaded with calcium indicator Fluo-4 for 45 minutes at 37° C. Cells were washed 4 times (Original Cell Wash, Labsystems) to remove extracellular dye. For screening, cells were pre-incubated with test agents for 30 minutes at a single concentration (10 uM) or at concentrations ranging from 0.01 to 10.0 uM, followed by VEGF stimulation (5 ng/mL). Changes in fluorescence at 516 nm were measured simultaneously in all 96 wells using a cooled CCD camera. Data were generated by determining max-min fluorescence levels for unstimulated, stimulated, and drug treated samples. IC50 values for test compounds were calculated from % inhibition of VEGF stimulated responses in the absence of inhibitor.

[2] = target: T1, cytoplasmic domain of the human VEGF receptor (VEGFR-2) (Homo sapiens, UniProt P35968); assay: KDR kinase assay (ELISA, poly-Glu-Tyr substrate, with BSA); assay type: biochemical; details: His-VEGFR-2, 3.6 μM ATP, plates incubated with 1% BSA
T1 construct: The cytoplasmic domain of the human VEGF receptor (VEGFR-2) was expressed; His (Histidine tag); made in house; host or cells: insect cells (engineered baculovirus)
Method: The cytoplasmic domain of the human VEGF receptor (VEGFR-2) was expressed as a Histidine-tagged fusion protein following infection of insect cells using an engineered baculovirus. His-VEGFR-2 was purified to homogeneity, as determined by SDS-PAGE, using nickel resin chromatography. Kinase assays were performed in 96 well microtiter plates that were coated overnight with 30 μg of poly-Glu-Tyr (4:1) in 10 mM Phosphate Buffered Saline (PBS), pH 7.2–7.4. The plates were incubated with 1% BSA and then washed four times with PBS prior to starting the reaction. Reactions were carried out in 120 μL reaction volumes containing 3.6 μM ATP in kinase buffer (50 mM Hepes pH 7.4, 20 mM MgCl2, 0.1 mM MnCl2 and 0.2 mM Na3VO4). Test compounds were reconstituted in 100% DMSO and added to the reaction to give a final DMSO concentration of 5%. Reactions were initiated by the addition 0.5 ng of purified protein. Following a ten minute incubation at 25° C., the reactions were washed four times with PBS containing 0.05% Tween-20. 100 μl of a monoclonal anti-phosphotyrosine antibody-peroxidase conjugate was diluted 1:10000 in PBS-Tween-20 and added to the wells for 30 minutes. Following four washes with PBS-Tween-20, 100 μl of 0-Phenylenediamine Dihydrochloride in Phosphate-citrate buffer, containing urea hydrogen peroxide, was added to the wells for 7 minutes as a colorimetric substrate for the peroxidase. The reaction was terminated by the addition of 100 μl of 2.5N H2SO4 to each well and read using a microplate ELISA reader set at 492 nm. IC50 values for compound inhibition were calculated directly from graphs of optical density (arbitrary units) versus compound concentration following subtraction of blank values.

[3] = Homo sapiens, single concentration 10 uM, VEGF 5 ng/mL

T1 sequence (P35968 786-1356 limits assumed): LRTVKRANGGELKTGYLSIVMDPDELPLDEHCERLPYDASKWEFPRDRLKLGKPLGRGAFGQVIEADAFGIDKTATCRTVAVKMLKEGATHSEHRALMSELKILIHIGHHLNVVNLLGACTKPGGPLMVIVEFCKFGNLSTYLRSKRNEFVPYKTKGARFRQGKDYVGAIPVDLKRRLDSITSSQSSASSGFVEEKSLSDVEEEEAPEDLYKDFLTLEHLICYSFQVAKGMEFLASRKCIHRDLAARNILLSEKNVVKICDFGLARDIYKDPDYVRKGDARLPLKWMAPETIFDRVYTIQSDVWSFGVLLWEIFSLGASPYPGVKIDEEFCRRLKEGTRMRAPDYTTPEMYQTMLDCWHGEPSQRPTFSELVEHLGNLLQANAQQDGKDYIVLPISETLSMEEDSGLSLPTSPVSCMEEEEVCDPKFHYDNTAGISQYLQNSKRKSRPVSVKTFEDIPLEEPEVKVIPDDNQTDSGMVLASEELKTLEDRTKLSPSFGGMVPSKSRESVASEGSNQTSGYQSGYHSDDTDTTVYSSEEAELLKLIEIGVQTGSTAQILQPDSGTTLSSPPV

IC50 [2] [µM] | Compound | IC50 ([1]; Homo sapiens) [µM] | inhibition at 10 µM [1, 3] [%] | IC50 [1] [µM] | VEGF (% inhibition @ 10 uM) (Cell based assay, Ca++) ([1]; single concentration 10 uM, VEGF 5 ng/mL) [%]
– | O=C1Nc2ccccc2C1=C1OCc2ccccc21 [Example 1, 3-(3H-isobenzofuran-1-ylidene)-1,3-dihydro-indol-2-one] | 0.11 | 99 | – | –
– | O=C1Nc2ccc(Cl)cc2C1=C1OCc2ccccc21 [Example 2, 5-Chloro-3-(3H-isobenzofuran-1-ylidene)-1,3-dihydro-indol-2-one] | 0.05 | 98 | – | –
– | Cc1cccc2c1C(=C1OCc3ccccc31)C(=O)N2 [Example 3, 3-(3H-Isobenzofuran-1-ylidene)-4-methyl-1,3-dihydro-indol-2-one] | 0.685 | 95 | – | –
0.073 | O=C1Nc2ccc(F)cc2C1=C1OCc2ccccc21 [Example 4, 5-Fluoro-3-(3H-isobenzofuran-1-ylidene)-1,3-dihydro-indol-2-one] | 0.055 | 99 | – | –
0.13 | Nc1ccc2c(c1)C(=C1C(=O)Nc3ccccc31)OC2 [Example 5, 3-(6-Amino-3H-isobenzofuran-1-ylidene)-1,3-dihydro-indol-2-one] | 0.04 | 98 | – | –
9.78 | CCCC(=O)Nc1ccc2c(c1)C(=C1C(=O)Nc3ccccc31)OC2 [Example 7, N-[3-(2-Oxo-1,2-dihydro-indol-3-ylidene)-1,3-dihydro-isobenzofuran-5-yl]-butyramide] | – | 5 | – | –
0.85 | O=C1Nc2ccccc2C1=C1OCc2ccc(NC(=O)C3CC3)cc21 [Example 8, Cyclopropanecarboxylic acid [3-(2-oxo-1,2-dihydro-indol-3-ylidene)-1,3-dihydro-isobenzofuran-5-yl]-amide] | – | 48 | – | –
3.25 | O=C(CCCCl)Nc1ccc2c(c1)C(=C1C(=O)Nc3ccccc31)OC2 [Example 9, 4-Chloro-N-[3-(2-oxo-1,2-dihydro-indol-3-ylidene)-1,3-dihydro-isobenzofuran-5-yl]-butyramide] | – | 35 | – | –
8.02 | COc1ccc(CC(=O)Nc2ccc3c(c2)C(=C2C(=O)Nc4ccccc42)OC3)cc1 [Example 10, 2-(4-Methoxy-phenyl)-N-[3-(2-oxo-1,2-dihydro-indol-3-ylidene)-1,3-dihydro-isobenzofuran-5-yl]-acetamide] | – | 50 | – | –
0.66 | CCNc1ccc2c(c1)C(=C1C(=O)Nc3ccccc31)OC2 [Example 11, 3-(6-Ethylamino-3H-isobenzofuran-1-ylidene)-1,3-dihydro-indol-2-one] | 0.78 | 99 | – | –
0.065 | Nc1ccc2c(c1)COC2=C1C(=O)Nc2ccccc21 [Example 12, 3-(5-Amino-3H-isobenzofuran-1-ylidene)-1,3-dihydro-indol-2-one] | 0.04 | 98 | – | –
1.34 | Nc1ccc(CO)c(C(=O)Nc2ccc3c(c2)C(=C2C(=O)Nc4ccccc42)OC3)c1 [Example 13, 5-Amino-2-hydroxymethyl-N-[3-(2-oxo-1,2-dihydro-indol-3-ylidene)-1,3-dihydro-isobenzofuran-5-yl]-benzamide] | 2.1 | 99 | – | –
0.64 | O=C1Nc2ccccc2C1=C1OCc2ccc(NCCCO)cc21 [Example 14, 3-[6-(3-Hydroxy-propylamino)-3H-isobenzofuran-1-ylidene]-1,3-dihydro-indol-2-one] | 0.85 | 100 | – | –
0.037 | CCNc1ccc2c(c1)COC2=C1C(=O)Nc2ccccc21 [Example 15, 3-(5-Ethylamino-3H-isobenzofuran-1-ylidene)-1,3-dihydro-indol-2-one] | 0.051 | 95 | – | –
0.015 | Nc1ccc2c(c1)C(=C1C(=O)Nc3ccc(Cl)cc31)OC2 [Example 16, 3-(6-Amino-3H-isobenzofuran-1-ylidene)-5-chloro-1,3-dihydro-indol-2-one] | 0.06 | 99 | – | –
0.139 | Nc1ccc2c(c1)CO/C2=C1/C(=O)Nc2ccc(Cl)cc21 [Example 17, 3-(5-Amino-3H-isobenzofuran-1-ylidene)-5-chloro-1,3-dihydro-indol-2-one] | 0.055 | 98 | – | –
0.063 | CC(=O)Nc1ccc2c(c1)COC2=C1C(=O)Nc2ccccc21 [Example 18, N-[1-(2-Oxo-1,2-dihydro-indol-3-ylidene)-1,3-dihydro-isobenzofuran-5-yl]-acetamide] | 0.04 | 97 | – | –
0.066 | CC(=O)Nc1ccc2c(c1)COC2=C1C(=O)Nc2ccc(Cl)cc21 [Example 19, N-[1-(5-Chloro-2-oxo-1,2-dihydro-indol-3-ylidene)-1,3-dihydro-isobenzofuran-5-yl]-acetamide] | 0.05 | 99 | – | –
0.39 | CC(=O)Nc1ccc2c(c1)C(=C1C(=O)Nc3ccc(Cl)cc31)OC2 [Example 20, N-[3-(5-Chloro-2-oxo-1,2-dihydro-indol-3-ylidene)-1,3-dihydro-isobenzofuran-5-yl]-acetamide] | 0.097 | 99 | – | –
1.69 | CN(C)c1ccc2c(c1)C(=C1C(=O)Nc3ccccc31)OC2 [Example 21, 3-(6-Dimethylamino-3H-isobenzofuran-1-ylidene)-1,3-dihydro-indol-2-one] | 1.31 | 94 | – | –
0.17 | CNc1ccc2c(c1)C(=C1C(=O)Nc3ccccc31)OC2 [Example 22, 3-(6-Methylamino-3H-isobenzofuran-1-ylidene)-1,3-dihydro-indol-2-one] | 0.29 | 96 | – | –
0.043 | CN(C)c1ccc2c(c1)COC2=C1C(=O)Nc2ccccc21 [Example 23, 3-(5-Dimethylamino-3H-isobenzofuran-1-ylidene)-1,3-dihydro-indol-2-one] | 0.096 | 96 | – | –
0.061 | CNc1ccc2c(c1)COC2=C1C(=O)Nc2ccccc21 [Example 24, 3-(5-Methylamino-3H-isobenzofuran-1-ylidene)-1,3-dihydro-indol-2-one] | 0.073 | 98 | – | –

Compound | IC50 [2] [µM] | IC50 ([1]; Homo sapiens) [µM] | inhibition at 10 µM [1, 3] [%] | IC50 [1] [µM] | VEGF (% inhibition @ 10 uM) (Cell based assay, Ca++) ([1]; single concentration 10 uM, VEGF 5 ng/mL) [%]
[3-(2-Oxo-1,2-dihydro-indol-3-ylidene)-1,3-dihydro-isobenzofuran-5-yl]-acetamide [Example 6] | 1.11 | – | – | 1.23 | 97
